The NIST ThermoML archive (doi:10.1016/j.jct.2013.02.001)

Conditions: Quantum Design PPMS relaxation calorimeter; for molar entropy: 101.33 kPa

O=P([O-])([O-])OP(=O)([O-])[O-].[Fe+2].[Fe+2] [iron(II) pyrophosphate]
Conditions	molar entropy [J/K/mol]
1 K, Crystal 2	0.08421
2 K, Crystal 2	0.1749
3 K, Crystal 2	0.2781
4 K, Crystal 2	0.4026
5 K, Crystal 2	0.5598
6 K, Crystal 2	0.7639
7 K, Crystal 2	1.033
8 K, Crystal 2	1.379
9 K, Crystal 2	1.814
10 K, Crystal 2	2.349
11 K, Crystal 2	2.988
12 K, Crystal 2	3.726
13 K, Crystal 2	4.55
14 K, Crystal 2	5.45
15 K, Crystal 2	6.422
16 K, Crystal 2	7.473
17 K, Crystal 2	8.609
18 K, Crystal 2	9.826
19 K, Crystal 1	11.08
20 K, Crystal 1	12.28
25 K, Crystal 1	16.82
30 K, Crystal 1	20.58
35 K, Crystal 1	24
40 K, Crystal 1	27.36
45 K, Crystal 1	30.72
50 K, Crystal 1	34.14
55 K, Crystal 1	37.63
60 K, Crystal 1	41.21
65 K, Crystal 1	44.87
70 K, Crystal 1	48.62
75 K, Crystal 1	52.44
80 K, Crystal 1	56.32
85 K, Crystal 1	60.25
90 K, Crystal 1	64.23
95 K, Crystal 1	68.25
100 K, Crystal 1	72.3
110 K, Crystal 1	80.43
120 K, Crystal 1	88.54
130 K, Crystal 1	96.61
140 K, Crystal 1	104.61
150 K, Crystal 1	112.55
160 K, Crystal 1	120.42
170 K, Crystal 1	128.21
180 K, Crystal 1	135.93
190 K, Crystal 1	143.57
200 K, Crystal 1	151.13
210 K, Crystal 1	158.6
220 K, Crystal 1	165.99
230 K, Crystal 1	173.3
240 K, Crystal 1	180.51
250 K, Crystal 1	187.62
260 K, Crystal 1	194.64
270 K, Crystal 1	201.56
273.15 K, Crystal 1	203.72
280 K, Crystal 1	208.38
290 K, Crystal 1	215.1
298.15 K, Crystal 1	220.5
300 K, Crystal 1	221.72

Conditions	Triple point temperature [K]
Crystal 2	18.96
